# Measured values reported in US4565699A, “Composition of matter and process” (The Upjohn Company, priority 1983, dated 1986).
# Read-outs that look alike come from different tables or passages of the source.
# Assays:
# Escherichia coli = experiment: MIC, standard tube dilution assay, BHI medium; assay type: cell-based; conditions: UC311, UC 311, read-out: Minimum inhibitory concentration
# From the text: (§1) The assay is a standard tube dilution assay using BHI (Brain Heart Infusion medium-Difco). "UC" is a registered trademark of The Upjohn Company Culture Collection.
# Streptococcus pneumoniae = experiment: MIC, standard tube dilution assay, BHI medium; assay type: cell-based; conditions: UC41, UC 41, read-out: Minimum inhibitory concentration
# From the text: as §1
# Streptococcus pyogenes = experiment: MIC, standard tube dilution assay, BHI medium; assay type: cell-based; conditions: UC152, UC 152, read-out: Minimum inhibitory concentration
# From the text: as §1
# Klebsiella pneumoniae = experiment: MIC, standard tube dilution assay, BHI medium; assay type: cell-based; conditions: UC58, UC 58, read-out: Minimum inhibitory concentration
# From the text: as §1
# Enterobacter cloacae = experiment: MIC, standard tube dilution assay, BHI medium; assay type: cell-based; conditions: UC9382, UC 9382, read-out: Minimum inhibitory concentration
# From the text: as §1
# Staphylococcus aureus = experiment: MIC, standard tube dilution assay, BHI medium; assay type: cell-based
# From the text: as §1
# Streptococcus faecalis = experiment: MIC, standard tube dilution assay, BHI medium; assay type: cell-based; conditions: Enterococcus faecalis, UC694; UC 694; read-out: Minimum inhibitory concentration
# From the text: as §1
# Serratia marcescens = experiment: MIC, standard tube dilution assay, BHI medium; assay type: cell-based; conditions: UC6888, UC 6888, read-out: Minimum inhibitory concentration
# From the text: as §1
# Citrobacter freundii = experiment: MIC, standard tube dilution assay, BHI medium; assay type: cell-based; conditions: UC3507, UC 3507, read-out: Minimum inhibitory concentration
# From the text: as §1
# Pseudomonas aeruginosa = experiment: MIC, standard tube dilution assay, BHI medium; assay type: cell-based
# From the text: as §1
# Haemophilus influenzae = experiment: MIC, standard tube dilution assay, BHI medium; assay type: cell-based
# From the text: as §1
# Gram-positive bacteria = experiment: Antimicrobial spectrum; assay type: cell-based
# From the text: as §1
# Solubilities = assay type: physicochemical
compound,measurement,setting,value
"C=C/C(C)=C/C1(CC)SC(=O)C(CC(N)=O)=C1O (stereo not shown) [U-68,204]",MIC,Escherichia coli,600 mg/L
same,MIC,Streptococcus pneumoniae,> 600 mg/L
same,MIC,Streptococcus pyogenes,> 600 mg/L
same,MIC,Klebsiella pneumoniae,300 mg/L
same,MIC,Enterobacter cloacae,> 600 mg/L
same,MIC,"Staphylococcus aureus; UC76, UC 76, read-out: Minimum inhibitory concentration",75 mg/L
same,MIC,"Staphylococcus aureus; UC3665, UC 3665, read-out: Minimum inhibitory concentration",75 mg/L
same,MIC,"Staphylococcus aureus; UC6675, UC 6675, read-out: Minimum inhibitory concentration",75 mg/L
same,MIC,"Staphylococcus aureus; UC6685, UC 6685, read-out: Minimum inhibitory concentration",600 mg/L
same,MIC,Streptococcus faecalis,> 600 mg/L
same,MIC,Serratia marcescens,> 600 mg/L
same,MIC,Citrobacter freundii,> 600 mg/L
same,MIC,"Pseudomonas aeruginosa; UC6432, UC 6432, read-out: Minimum inhibitory concentration",> 600 mg/L
same,MIC,"Pseudomonas aeruginosa; UC6676, UC 6676, read-out: Minimum inhibitory concentration",> 600 mg/L
same,MIC,"Pseudomonas aeruginosa; UC6954, UC 6954, read-out: Minimum inhibitory concentration",> 600 mg/L
same,MIC,"Pseudomonas aeruginosa; UC6955, UC 6955, read-out: Minimum inhibitory concentration",19 mg/L
same,MIC,"Pseudomonas aeruginosa; UC9027, UC 9027, read-out: Minimum inhibitory concentration",37.5 mg/L
same,MIC,"Haemophilus influenzae; UC6482, UC 6482, read-out: Minimum inhibitory concentration",9.4 mg/L
same,MIC,"Haemophilus influenzae; UC6483, UC 6483, read-out: Minimum inhibitory concentration",19 mg/L
same,Activity against various Gram-positive bacteria,Gram-positive bacteria,active
same,Solubility,Solubilities; most organic solvents,soluble in most organic solvents
same,Solubility,Solubilities; water,not soluble in water
